Assay results as given in patent EP4537835A1, “MIXTURE, COMPOSITIONS CONTAINING THAT MIXTURE AND USE THEREOF IN THE TREATMENT OF FEMAL INFERTILITY” (Nutra Futura S.r.l., priority 2023, dated 2025).

Tested on: CaCo-2 cells
Assay: Dose-response study of cell viability (MTT assay) on CaCo-2 cells
Format: cell-based, human
Details: p<0.05 compared to the other tested doses
Protocol: The human intestinal epithelial cell line CaCo-2, purchased from the American Type Culture Collection (ATCC), was used as an experimental model to predict the characteristics of intestinal absorption following oral administration. This cell line was cultured in Dulbecco's Modified Eagle Medium/Nutrient F-12 Ham (DMEM-F12, Merck Life Science, Rome, Italy) containing 10% FBS (Merck Life Science, Rome, Italy), 2 mM of L-glutamine and 1% penicillin-streptomycin (Merck Life Science, Rome, Italy) and kept in an incubator at 37 °C and 5% CO2. The experiments were conducted using cells with a passage number comprised between 26 and 32 to maintain the correct properties of permeability and paracellular transport. The cells were seeded in various ways, including 1 × 10^4 cells in 96-well plates, in order to study cell viability and ROS production, synchronising the cells for 8 hours with DMEM without phenol red and supplemented with 0.5% FBS, 2 mM L-glutamine and 1% penicillin-streptomycin at 37 °C; 2 × 10^4 cells in Transwell® 6.5 mm plates (Corning® Costar®, Merck Life Science, Rome, Italy) with a polycarbonate membrane insert with 0.4 µm pores (Corning® Costar®, Merck Life Science, Rome, Italy) in a 24-well plate in order to perform the absorption analyses.
The analysis of cell viability was carried out with a classic technique based on the MTT in vitro toxicology assay kit (Merck Life Science, Rome, Italy), following the manufacturer's instructions. In fact, at the end of the treatment, the cells were incubated with 1% MTT dye for 2 hours in an incubator at 37 °C, 5% CO2 and 95% humidity; the purple formazan crystals were then dissolved in an equal volume of MTT solubilisation solution. Absorbance was analysed with a spectrophotometer (Infinite 200 Pro MPlex, Tecan, Männedorf, Switzerland) at 570 nm with correction at 690 nm, and the results were expressed versus the control ([…]), which represented the untreated cells. The results represent the percentage of viable cells versus the control, which makes it possible to understand whether the stimulation is safe or not.
With the aim of evaluating what the best concentration of each selected substance might be, and to prevent any cytotoxic effect, the viability of the CaCo-2 cells was analysed by means of the MTT assay.
• L. crispatus (10 mg/ml; 20 mg/ml; 30 mg/ml; 40 mg/ml; 50 mg/ml) • NAC (0.3 mM; 0.6 mM; 1 mM) • lycopene (0.1 µM; 0.2 µM; 0.5 µM) • vitamin D3 (10 nM; 100 nM) • folic acid (10 µM; 50 µM; 125 µM; 500 µM)
Therefore, these were maintained for all the subsequent experiments.

| SMILES | most effective concentration (cell viability) |
| --- | --- |
| Nc1nc(=O)c2nc(CNc3ccc(C(=O)N[C@@H](CCC(=O)O)C(=O)O)cc3)cnc2[nH]1 [Folic acid, (S)-2-(4-((2-amino-4-hydroxypteridin-6-yl)-methylamino)benzamide)pentanedioic acid] | 50 µM |
| C=C1CC[C@H](O)C/C1=C/C=C1\CCC[C@]2(C)[C@@H]([C@H](C)CCCC(C)C)CC[C@@H]12 [Vitamin D, cholecalciferol] | 0.01 µM |
| CC(C)=CCC/C(C)=C/C=C/C(C)=C/C=C/C(C)=C/C=C/C=C(C)/C=C/C=C(C)/C=C/C=C(\C)CCC=C(C)C [Lycopene, (6E,8E,10E,12E,14E,16E,18E,20E,22E,24E,26E)-2,6,10,14,19,23,27,31-Octamethyl-dotriaconta-2,6,8,10,12,14,16,18,20,22,24,26,30-tridecane] | 0.2 µM |
| CC(=O)N[C@@H](CS)C(=O)O [NAC, N-acetyl-L-cysteine] | 600 µM |
